Where a name gives a salt, the structure may show the parent alone.
Assays:
[1] = system: canine adipocytes; assay: Lipolytic activity in canine fatty cell (glycerol release); assay type: cell-based, dogs; settings: Canis lupus familiaris, Adipocyte
Experimental: Lipolytic Activity in Canine Fatty Cell
Adipose tissues in the omentum were collected from dogs and minced and washed. Krebs-Ringer buffer solution containing 1 mg/ml Collagenase (Sigma) and 1% of bovine serum albumin was added in an amount of 3 ml per one gram of the tissue. These cells were then incubated at 37° C. for 30 minutes with shaking and then undigested tissues were removed with a nylon filter. The resulting adipocytes were washed four times with Krebs-Ringer buffer, and then the concentration of cells was diluted to 2×10^5/ml with Krebs-Ringer buffer solution containing 4% of bovine serum albumin. These cells were transferred to Eppendorf tubes each in an amount of 300 μl.
Each 300 μl of a culture medium containing the test compounds were added to these tubes and was held at 37° C. for 1 hour whith shaking. Stimulation was stoped by cooling with ice. After centrifugation, the adipocytes were taken off with an aspirator, whereupon the glycerol was determined using F-KIT GLTCEROL (Behringer-Manheim).

[2] = system: male ddy mice; assay: Toxicity test in mice; assay type: in vivo; settings: dose of 100 mg/kg; 8 mice
Experimental: The compounds of Examples 7 and 31 were administered to 6 week age male ddy mice (supplied from the firm Nippon Charles Liver) at a dose of 100 mg/kg.

[3] = molecular target: T1, human β3 (Homo sapiens, UniProt P13945); assay: Human β3-agonist activity (cAMP in CHO cells transfected with human β3 gene); assay type: cell-based
T1 construct: And then full length of human β3 gene was cloned using this fragment as a probe; expressed in transfected cells; host or cells: CHO cells (Chinese hamster ovary), pcDNA3 vector

[4] = system: male ddy mice; assay: Blood sugar decreasing effect in glucose-loaded mice; assay type: in vivo; settings: oral administration; glucose 2 g/kg s.c.; after one hour
Experimental: Blood Sugar Decreasing Effect and Lipolytic Effect Male ddy mice (supplied from the firm Nippon Charles Liver) of 6 weeks age were subcutaneously administered with glucose in a dose of 2 g/kg. The animals were also treated with either one of test compounds via oral or intraperitoneal administration in a dose of 0.1 ml per 10 grams of body weight. After one hour, blood sample was taken from abdominal aorta, from which serum was separated and served as the sample. Blood Sugar Decreasing Effect The samples prepared as above were analyzed for the serum glucose concentration by Auto analyzer (SUPER Z of the firm M. C. Medical). For the analyzer kit, Glucose II HA TEST WAKO (of the firm Wako Pure Chemical) was used. % decrease in blood sugar=[(A−B)/(A−C)]×100 in which A represents the glucose concentration upon being loaded with glucose, B represents the glucose concentration after administration of the compound and C is the usual level of the glucose concentration. […] Therefore, it was proven that the compound according to the present invention is effective as a medicament for therapeutic and preventive treatment of diabetes.

[5] = system: male ddy mice; assay: Lipolytic effect in mice (serum free fatty acid); assay type: in vivo; settings: oral administration of 30 mg/kg
Experimental: Blood Sugar Decreasing Effect and Lipolytic Effect Male ddy mice (supplied from the firm Nippon Charles Liver) of 6 weeks age were subcutaneously administered with glucose in a dose of 2 g/kg. The animals were also treated with either one of test compounds via oral or intraperitoneal administration in a dose of 0.1 ml per 10 grams of body weight. After one hour, blood sample was taken from abdominal aorta, from which serum was separated and served as the sample. Lipolytic Effect Amount of free fatty acid in the samples was determined using NEFA HA TEST WAKO (of the firm Wako Pure Chemical). […] Therefore, it was shown that they are useful as medicament for preventive and therapeutic treatment of hyperlipemia and for therapeutic treatment of obesity.

T1 sequence (P13945 whole entry, the tested form may be a part): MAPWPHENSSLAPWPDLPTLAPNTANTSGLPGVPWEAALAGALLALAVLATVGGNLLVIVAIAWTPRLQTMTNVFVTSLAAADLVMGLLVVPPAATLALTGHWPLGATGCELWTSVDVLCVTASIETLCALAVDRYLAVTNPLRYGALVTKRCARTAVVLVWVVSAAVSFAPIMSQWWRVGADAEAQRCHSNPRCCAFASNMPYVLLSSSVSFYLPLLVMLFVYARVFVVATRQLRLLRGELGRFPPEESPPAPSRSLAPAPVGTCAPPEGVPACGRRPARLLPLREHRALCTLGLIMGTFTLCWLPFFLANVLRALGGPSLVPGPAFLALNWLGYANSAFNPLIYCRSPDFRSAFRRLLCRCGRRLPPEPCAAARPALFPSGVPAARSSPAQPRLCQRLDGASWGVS

In the case of OC(CNCCOc1ccc2c(c1)[nH]c1ccccc12)c1ccccc1 (racemic) [Example 31, (±)-2-N-[2-(9H-Carbazol-2-yloxy)ethyl]amino]-1-phenyethanol Hydrochloride], the EC50 ([1]; 1 h, glycerol release, canine adipocytes, read-out: ED50 (the source's name)) is reported as 7.7 µM, the Emax ([1]; read-out: Intrinsic activity (%)) is reported as 103% and the fatal cases [2] is reported as “no fatal case”. For the same compound, the Emax ([3]; CHO, read-out: Intrinsic activity (%)) was 100%, the EC50 ([3]; cAMP, CHO cells with human β3, read-out: ED50 (the source's name)) was 2.2 µM and the “% decrease in blood sugar” value [4] was 34.5%. For the same compound, the “increase of free fatty acid” value [5] was 32.4%.

Reference: patent US6545053B1, “Tricyclic compounds and drug compositions containing same” (Asahi Kasei Kogyo Kabushiki Kaisha, priority 1996, dated 2003)
